These results are taken from US20220361496A1, “HERBICIDE COMPOSITIONS” (UPL CORPORATION LIMITED, priority 2019, published 2022).

What all share (format): in vivo
One experiment has as its system Brachiaria plantaginea. The experiment can be described thus: Pre-emergence herbicidal efficacy, % control of Brachiaria plantaginea. To be noted: for % Control 35 DAA Brachiaria plantaginea: 35 DAA (Table 3). On the procedure: (§1) Experiments were carried out evaluate the efficacy, selectivity and synergism of propisochlor combinations when applied at soybean pre-emergence.
(§2) The evaluation for the damage on undesired weeds caused by the compositions was carried out using a scale from 0 to 100%, compared to the untreated control plants. Here, 0 means no damage and 100 means complete destruction of the plants.
(§3) The tables 1 below relate to the herbicidal activity, of the individual actives and the combinations applied in pre-emergence application at 35 days after administration (DAA) treatment.

Another experiment relates to Ipomoea hederifolia. As to the kind of experiment: Pre-emergence herbicidal efficacy, % weed control of Ipomoea hederifolia. The procedure:
as §1, §2, §3

The next experiment deals with Spermacoce verticillata. The experiment can be described thus: Pre-emergence herbicidal efficacy, % weed control of Spermacoce verticillata. The procedure:
as §1, §2, §3

The subject of a further experiment is Cenchrus echinatus. The experiment can be described thus: Pre-emergence herbicidal efficacy, % control of Cenchrus echinatus. On the procedure:
as §1, §2

In the next experiment the test system is Brachiaria decumbens. As to the kind of experiment: Pre-emergence herbicidal efficacy, % control of Brachiaria decumbens. On the procedure:
as §1, §2

A further experiment concerns Ipomoea grandifolia. As to the kind of experiment: Pre-emergence herbicidal efficacy, % control of Ipomoea grandifolia. On the procedure:
as §1, §2

For the compound `CCc1cccc(C)c1N(COC(C)C)C(=O)CCl` [propisochlor], in the experiment on Brachiaria plantaginea (1200 g ai/ha), the “% Control of Brachiaria plantaginea 35 DAA” value amounted to 84.50% and the “% Control 35 DAA Brachiaria plantaginea” value was found to be 84.50%. In addition, the “% Weed control 35 DAA Ipomoea hederifolia” value in the experiment on Ipomoea hederifolia (525 g ai/ha) worked out at 26.25%. In the experiment on Ipomoea hederifolia (675 g ai/ha), the “% Weed control 35 DAA Ipomoea hederifolia” value worked out at 27%. The “% Weed control 35 DAA Spermacoce verticillata” value in the experiment with Spermacoce verticillata (525 g ai/ha) is 92.75%. Besides, the “% Weed control 35 DAA Spermacoce verticillata” value with Spermacoce verticillata (675 g ai/ha) is given as 95.75%. Further, in the experiment with Cenchrus echinatus (540.0 g ai/ha), the “% Control - Cenchrus echinatus 7 DAA” value stood at 91.3%, the “% Control - Cenchrus echinatus 28 DAA” value was 75.8% and the “% Control - Cenchrus echinatus 35 DAA” value amounted to 65.0%. In the experiment on Cenchrus echinatus (1080.0 g ai/ha), the “% Control - Cenchrus echinatus 7 DAA” value came out at 95.3%, the “% Control - Cenchrus echinatus 28 DAA” value worked out at 85.0% and the “% Control - Cenchrus echinatus 35 DAA” value is recorded as 80.0%. Moreover, in the experiment with Brachiaria decumbens (540 g ai/ha), the “% Control of Brachiaria decumbens 7 DAA” value turned out to be 89.5%, the “% Control of Brachiaria decumbens 14 DAA” value amounted to 85.8%, the “% Control of Brachiaria decumbens 21 DAA” value was 78.8% and the “% Control of Brachiaria decumbens 28 DAA” value is on record as 70%. Further, in the experiment on Brachiaria decumbens (1080 g ai/ha), the “% Control of Brachiaria decumbens 7 DAA” value came to 92.8%, the “% Control of Brachiaria decumbens 14 DAA” value is recorded as 91%, the “% Control of Brachiaria decumbens 21 DAA” value is reported as 85% and the “% Control of Brachiaria decumbens 28 DAA” value came out at 76.3%. In the experiment with Ipomoea grandifolia (540 g ai/ha), the “% Control of Ipomoea grandifolia 7 DAA” value stood at 81.3%, the “% Control of Ipomoea grandifolia 14 DAA” value amounted to 87.0%, the “% Control of Ipomoea grandifolia 21 DAA” value was determined as 87.5% and the “% Control of Ipomoea grandifolia 28 DAA” value came to 91.3%. The “% Control of Ipomoea grandifolia 35 DAA” value in the experiment with Ipomoea grandifolia (540 g ai/ha) is 91.8%.
In the case of `CCOc1nc(F)cc2nc(S(=O)(=O)Nc3c(Cl)cccc3Cl)nn12` [Diclosulam], in the experiment on Brachiaria plantaginea (20 g ai/ha), the “% Control of Brachiaria plantaginea 35 DAA” value is 50.0%.
Take `Cc1nn(-c2cc(NS(C)(=O)=O)c(Cl)cc2Cl)c(=O)n1C(F)F` [Sulfentrazone]: in the experiment on Brachiaria plantaginea (150 g ai/ha), the “% Control 35 DAA Brachiaria plantaginea” value is given as 65.00%. For the same compound, the “% Weed control 35 DAA Ipomoea hederifolia” value in the experiment on Ipomoea hederifolia (75 g ai/ha) is on record as 98.00%. Also, in the experiment with Spermacoce verticillata (75 g ai/ha), the “% Weed control 35 DAA Spermacoce verticillata” value turned out to be 92.25%.
As to `CC(C)C1(C)N=C(c2nc3ccccc3cc2C(=O)O)NC1=O` (stereo not drawn) [imazaquin], in the experiment on Cenchrus echinatus (80.5 g ai/ha), the “% Control - Cenchrus echinatus 7 DAA” value came to 18.8%, the “% Control - Cenchrus echinatus 28 DAA” value was determined as 10.0% and the “% Control - Cenchrus echinatus 35 DAA” value was 6.3%. Also, in the experiment on Brachiaria decumbens (80.5 g ai/ha), the “% Control of Brachiaria decumbens 7 DAA” value was 30%, the “% Control of Brachiaria decumbens 14 DAA” value worked out at 22.5%, the “% Control of Brachiaria decumbens 21 DAA” value worked out at 21.3% and the “% Control of Brachiaria decumbens 28 DAA” value was 18.8%.
As for `CC(C)C1(C)N=C(c2ncccc2C(=O)O)NC1=O` (stereo not drawn) [imazapyr], in the experiment on Cenchrus echinatus (26.6 g ai/ha), the “% Control - Cenchrus echinatus 7 DAA” value was found to be 3.8%, the “% Control - Cenchrus echinatus 28 DAA” value amounted to 0.0% and the “% Control - Cenchrus echinatus 35 DAA” value is reported as 0.0%. For the same compound, in the experiment on Brachiaria decumbens (26.6 g ai/ha), the “% Control of Brachiaria decumbens 7 DAA” value is on record as 30%, the “% Control of Brachiaria decumbens 14 DAA” value came out at 12.5%, the “% Control of Brachiaria decumbens 21 DAA” value is recorded as 6.3% and the “% Control of Brachiaria decumbens 28 DAA” value is 2.5%. Besides, in the experiment with Ipomoea grandifolia (66.6 g ai/ha), the “% Control of Ipomoea grandifolia 7 DAA” value was determined as 16.3%, the “% Control of Ipomoea grandifolia 14 DAA” value came out at 30.0%, the “% Control of Ipomoea grandifolia 21 DAA” value is on record as 51.3% and the “% Control of Ipomoea grandifolia 28 DAA” value is on record as 62.5%. Also, in the experiment with Ipomoea grandifolia (66.6 g ai/ha), the “% Control of Ipomoea grandifolia 35 DAA” value is 63.8%.
